Laboratory results from patent US11026916B2, “Treatment for non-alcoholic fatty liver diseases” (DSM IP ASSETS B.V., priority 2014, dated 2021).

Assays:
Type in all cases: cell-based, human
CCL4/MIP-1beta = CCL4/MIP-1beta secretion by LPS-stimulated leukocytes (mononuclear cells), multiplex cytokine kit; settings: for CCL4/MIP-1 b reduction (in words): pre-incubating cells prior to the stimulation with LPS
Protocol: (§1) Leukocytes are obtained from healthy donors. Mononuclear cells (MNC) are purified by Ficoll-Isopaque gradient centrifugation. Cells (at 3-8×10^6 cells/mL) are cultured in phenol-red free RPMI 1640, supplemented with 0.25% FBS, 0.1 mM NEAA, 50 U/mL penicillin, 50 μg/mL streptomycin and 5×10^-5 M 2-mercaptoethanol. Cells are stimulated with LPS (100 ng/mL) and IFN-γ (20 U/mL) for 2-24 h. Multiparametric kits for determination of cytokines and chemokines are purchased from BIO-RAD Laboratories (Hercules, Calif.) and used in the LiquiChip Workstation IS 200 (Qiagen, Hilden, Germany). The data are evaluated with the LiquiChip Analyser software (Qiagen).
(§2) The algorithm developed by Chou and Tatalay is used to calculate synergistic effects (Chou, T-C. Et Tatalay, P. A simple Biol. Chem. 252, 6438-6442, 1977; Chou, T-C. Et Tatalay, P. Analysis of combined drug effects—A new look at a very old problem. Trends in Biological Sciences. November 1983, p 450-454, 1983). Interactions are quantified by the Combination Index (CI). Briefly, the % of inhibition of the concentration of each single substance alone or the mixture of both are determined. The affected fraction (fa) (values between 0 and 1) and unaffected fraction (fu) (1−fa), respectively, is calculated. For median-effect plots, log (fa/fu) is plotted against log (D), where D represents the concentration of each single compound alone or the mixture of both. Using CalcuSyn software (Biosoft, Ferguson, Mo.), which is based upon the method by Chou Et Tatalay, a CI is computed for every fraction affected: a CI<1 reflects synergistic inhibition of the respective inflammatory parameter; if CI=1 the substances have additive interactions; when CI>1 the interaction of substances reflects antagonism. It has also been observed that substances can have synergistic or antagonistic interactions at given concentrations or ratios, respectively (see e.g. Pappa et al. Quantitative combination effects between sulforaphane and 3,3′-[…] diindolylmethane on proliferation of human colon cancer cells in vitro. Carcinogenesis 28, 1471-77, 2007).
(§3) Cells are stimulated with LPS, an pathogen-derived component that induces inflammatory response, which is reflected in the expression of inflammatory genes and the secretion of cytokines, interleukins and chemokines (Table 1). LPS induces a massive increase of the secretion of inflammatory mediators such as TNF-alpha. Concomitantly, inflammatory mediators are secreted. These parameters are modulated by pre-incubating cells with α-tocopherol or ω-3 PUFA prior to the stimulation with LPS. For instance, the pro-inflammatory cytokine […] is reduced by 29% and 64%, respectively (Table 1a). […] Thus, the substances reduces the extent of the inflammatory stress in cells that respond to inflammatory stimuli.

TNF-alpha = TNF-alpha secretion by LPS-stimulated leukocytes (mononuclear cells), multiplex cytokine kit; settings: for % reduction of TNF-alpha: pre-incubating cells prior to the stimulation with LPS, concentration not stated in the sentence (Table 1a)
Protocol: as §1, §2, §3

IL-1beta = IL-1beta secretion by LPS-stimulated leukocytes (mononuclear cells), multiplex cytokine kit; settings: for IL-1beta reduction (in words): pre-incubating cells prior to the stimulation with LPS
Protocol: as §1, with “(Qiagen). […]” for “(Qiagen).”
as §3

Row | SMILES | CCL4/MIP-1 b reduction (in words) (CCL4/MIP-1beta) | % inhibition (vs LPS) of CCL4 (CCL4/MIP-1beta; single substance 10 μM + LPS) [%] | CCL4 pg/mL ± SD (CCL4/MIP-1beta; single substance 10 μM + LPS) [pg/mL] | % inhibition (vs LPS) of CCL4 (CCL4/MIP-1beta; single substance 50 μM + LPS) [%] | CCL4 pg/mL ± SD (CCL4/MIP-1beta; single substance 50 μM + LPS) [pg/mL] | % reduction of TNF-alpha (TNF-alpha) [%] | % inhibition (vs LPS) of TNF-alpha (TNF-alpha; single substance 10 μM + LPS) [%] | TNF-alpha pg/mL ± SD (TNF-alpha; single substance 10 μM + LPS) [pg/mL] | % inhibition (vs LPS) of TNF-alpha (TNF-alpha; single substance 50 μM + LPS) [%] | TNF-alpha pg/mL ± SD (TNF-alpha; single substance 50 μM + LPS) [pg/mL] | IL-1beta reduction (in words) (IL-1beta) | % inhibition (vs LPS) of IL-1beta (IL-1beta; single substance 10 μM + LPS) [%] | IL-1beta pg/mL ± SD (IL-1beta; single substance 10 μM + LPS) [pg/mL] | % inhibition (vs LPS) of IL-1beta (IL-1beta; single substance 50 μM + LPS) [%] | IL-1beta pg/mL ± SD (IL-1beta; single substance 50 μM + LPS) [pg/mL] | further results
1 | CC/C=C\C/C=C\C/C=C\C/C=C\C/C=C\C/C=C\CCC(=O)O [DHA, (all-Z)-4,7,10,13,16,19-docosahexaenoic acid] | significantly reduced | 32 | 79995 ± 3465 | 62 | 37600 ± 778 | 64 | 60 | 3190 ± 14 | 59 | 3105 ± 163 | significantly reduced | 14 | 5405 ± 742 | 77 | 1440 ± 71 | % inhibition (vs LPS) of CCL4 (CCL4/MIP-1beta; single substance 20 μM + LPS): 62%; CCL4 pg/mL ± SD (CCL4/MIP-1beta; single substance 20 μM + LPS): 67000 ± 7523 pg/mL; % inhibition (vs LPS) of TNF-alpha (TNF-alpha; single substance 20 μM + LPS): 64%; TNF-alpha pg/mL ± SD (TNF-alpha; single substance 20 μM + LPS): 3400 ± 523 pg/mL; % inhibition (vs LPS) of IL-1beta (IL-1beta; single substance 20 μM + LPS): 23%; IL-1beta pg/mL ± SD (IL-1beta; single substance 20 μM + LPS): 4865 ± 1633 pg/mL
2 | Cc1c(C)c2c(c(C)c1O)CC[C@@](C)(CCC[C@H](C)CCC[C@H](C)CCCC(C)C)O2 [AT, α-tocopherol] | significantly reduced | 7 | 91400 ± 5657 | 15 | 83900 ± 3111 | 29 | −4 | 5505 ± 177 | 29 | 3755 ± 21 | significantly reduced | −7 | 6770 ± 438 | 9 | 5735 ± 134 | % inhibition (vs LPS) of CCL4 (CCL4/MIP-1beta; single substance 200 μM + LPS): 11%; CCL4 pg/mL ± SD (CCL4/MIP-1beta; single substance 200 μM + LPS): 87950 ± 3165 pg/mL; % inhibition (vs LPS) of TNF-alpha (TNF-alpha; single substance 200 μM + LPS): 27%; TNF-alpha pg/mL ± SD (TNF-alpha; single substance 200 μM + LPS): 3870 ± 14 pg/mL; % inhibition (vs LPS) of IL-1beta (IL-1beta; single substance 200 μM + LPS): 14%; IL-1beta pg/mL ± SD (IL-1beta; single substance 200 μM + LPS): 5430 ± 113 pg/mL
